Reference: patent US8796245B2 (TetraPhase Pharmaceuticals, Inc., priority 2008, dated 2014)
Values after ≈ are worked out from the molar mass of the structure shown. Where two headings read alike, the source gives them in different places.

What was measured:
Format in all cases: cell-based
[1] = tested on: S. aureus ATCC 29213 (SA101, MSSA); test: Minimum inhibitory concentration assay, SA101; conditions: for MIC: Staphylococcus aureus, S. aureus ATCC 29213, MSSA control, read-out: MICs SA101; for MIC SA101 29213: control compounds, numeric MIC, 0.016 means 0.016 or lower
Description: (§1) Frozen bacterial strains were thawed and subcultured onto Mueller Hinton Broth (MHB) or other appropriate media (Streptococcus requires blood and Haemophilus requires hemin and NAD). Following incubation overnight, the strains were subcultured onto Mueller Hinton Agar and again incubated overnight. […] Isolated colonies were selected to prepare a starting inoculum equivalent to a 0.5 McFarland standard. The starting inoculum was diluted 1:125 using MHB for further use. Test compounds were prepared by dilution in sterile water to a final concentration of 5.128 mg/mL. Antibiotics (stored frozen, thawed and used within 3 hours of thawing) and compounds were further diluted to the desired working concentrations.
(§2) The assays were run as follows. Fifty μL of MHB was added to wells 2-12 of a 96-well plate. One hundred […] of appropriately diluted antibiotics was added to well 1. Fifty μL of antibiotics was removed from well 1 and added to well 2 and the contents of well 2 mixed by pipetting up and down five times. Fifty μL of the mixture in well 2 was removed and added to well 3 and mixed as above. Serial dilutions were continued in the same manner through well 12. Fifty μL was removed from well 12 so that all contained 50 μL. Fifty μL of the working inoculum was then added to all test wells. A growth control well was prepared by adding 50 μL of working inoculum and 50 μL of MHB to an empty well. The plates were then incubated at 37° C. overnight, removed from the incubator and each well was read on a plate reading mirror. The lowest concentration (MIC) of test compound that inhibited the growth of the bacteria was recorded.

[2] = tested on: S. aureus ATCC 13709 (SA100, MSSA, Smith strain); test: Minimum inhibitory concentration assay, SA100; conditions: Staphylococcus aureus; S. aureus ATCC 13709, MSSA Smith strain; read-out: MICs SA100
Description: as §1, §2

[3] = tested on: S. aureus SA161 (tet resistant: tet(M) ribosomal protection); test: Minimum inhibitory concentration assay, SA161; conditions: Staphylococcus aureus, read-out: MICs SA161
Description: as §1, §2

[4] = tested on: E. coli EC155 (tet resistant: tetA efflux); test: microbe, parasite or virus in culture
Description: as §1, §2

[5] = tested on: K. pneumoniae KP153 (tet resistant: tetA efflux); test: microbe, parasite or virus in culture; conditions: Klebsiella pneumoniae, read-out: MICs KP153
Description: as §1, §2

[6] = tested on: S. aureus SA158 (tet resistant: tetK efflux); test: microbe, parasite or virus in culture; conditions: Staphylococcus aureus, read-out: MICs SA158
Description: as §1, §2

[7] = tested on: E. faecalis ATCC 29212 (EF103); test: Minimum inhibitory concentration assay, EF103; conditions: Enterococcus faecalis, ATCC29212, read-out: MICs EF103
Description: as §1, §2

[8] = tested on: E. faecalis EF159 (tet resistant: tetM); test: Minimum inhibitory concentration assay, EF159; conditions: Enterococcus faecalis, read-out: MICs EF159
Description: as §1, §2

[9] = tested on: S. pneumoniae ATCC 49619 (SP106); test: Minimum inhibitory concentration assay, SP106; conditions: Streptococcus pneumoniae, ATCC49619; S. pneumoniae ATCC 49619, wt; read-out: MICs SP106
Description: as §1, §2

[10] = tested on: S. pneumoniae SP160 (tet resistant: tet M); test: Minimum inhibitory concentration assay, SP160; conditions: Streptococcus pneumoniae, read-out: MICs SP160
Description: as §1, §2

[11] = tested on: E. coli ATCC 25922 (EC107); test: Minimum inhibitory concentration assay, EC107; conditions: Escherichia coli, ATCC25922; E. coli ATCC 25922, wt; read-out: MICs EC107
Description: as §1, §2

[12] = tested on: A. baumanii ATCC 19606 (AB110); test: Minimum inhibitory concentration assay, AB110
Description: as §1, §2

[13] = tested on: P. aeruginosa ATCC 27853 (PA111); test: Minimum inhibitory concentration assay, PA111
Description: as §1, §2

[14] = tested on: E. cloacae ATCC 13047 (EC108); test: Minimum inhibitory concentration assay, EC108
Description: as §1, §2

[15] = tested on: K. pneumoniae ATCC 13883 (KP109); test: Minimum inhibitory concentration assay, KP109; conditions: Klebsiella pneumoniae, ATCC13883; K. pneumoniae ATCC 13883, wt; read-out: MICs KP109
Description: as §1, §2

[16] = Escherichia coli, E. coli tet resistant: tetA (efflux), read-out: MICs EC155
[17] = Acinetobacter baumannii, ATCC19606, A. baumanii ATCC 19606, wt, read-out: MICs AB110
[18] = Pseudomonas aeruginosa, ATCC27853, P. aeruginosa ATCC 27853, wt, read-out: MICs PA111
[19] = Enterobacter cloacae, ATCC13047, E. cloacae ATCC 13047, wt, read-out: MICs EC108
[20] = AB110, control compounds, numeric
[21] = PA111, control compounds, numeric
[22] = EC108, control compounds, numeric
[23] = EC155 tetA, control compounds, numeric

Compound	MIC [1] [µg/mL]	MIC [2] [µg/mL]	MIC [3] [µg/mL]	MIC [4, 16] [µg/mL]	MIC [5] [µg/mL]	MIC [6] [µg/mL]	MIC [7] [µg/mL]	MIC [8] [µg/mL]	MIC [9] [µg/mL]	MIC [10] [µg/mL]	MIC [11] [µg/mL]	MIC [12, 17] [µg/mL]	MIC [13, 18] [µg/mL]	MIC [14, 19] [µg/mL]	MIC [15] [µg/mL]	MIC SA101 29213 [1] [µg/mL]	MIC [12, 20] [µg/mL]	MIC [13, 21] [µg/mL]	MIC [14, 22] [µg/mL]	MIC [4, 23] [µg/mL]
CN(C)[C@@H]1C(O)=C(C(N)=O)C(=O)[C@@]2(O)C(O)=C3C(=O)c4c(O)c(NC(=O)CNC5CCCC5)cc(F)c4C[C@H]3C[C@@H]12 [Compound 18]	0.0625 (≈ 0.109 µM)	≤ 0.0156	0.0625 (≈ 0.109 µM)	4 (≈ 6.99 µM)	4 (≈ 6.99 µM)	0.125 (≈ 0.218 µM)	≤ 0.0156	0.0313 (≈ 0.0547 µM)	≤ 0.0156	≤ 0.0156	0.125 (≈ 0.218 µM)	0.25 (≈ 0.437 µM)	16 (≈ 27.9 µM)	0.5 (≈ 0.873 µM)	0.5 (≈ 0.873 µM)					
CC(C)CNCC(=O)Nc1cc(F)c2c(c1O)C(=O)C1=C(O)[C@]3(O)C(=O)C(C(N)=O)=C(O)[C@@H](N(C)C)[C@@H]3C[C@@H]1C2 [Compound 19]	0.125 (≈ 0.223 µM)	0.25 (≈ 0.446 µM)	0.25 (≈ 0.446 µM)	4 (≈ 7.14 µM)	4 (≈ 7.14 µM)	0.25 (≈ 0.446 µM)	≤ 0.0156	0.125 (≈ 0.223 µM)	≤ 0.0156	≤ 0.0156	0.25 (≈ 0.446 µM)	0.25 (≈ 0.446 µM)	16 (≈ 28.5 µM)	2 (≈ 3.57 µM)	1 (≈ 1.78 µM)					
CN(C)[C@@H]1C(O)=C(C(N)=O)C(=O)[C@@]2(O)C(O)=C3C(=O)c4c(O)c(NC(=O)CNCC5CC5)cc(F)c4C[C@H]3C[C@@H]12 [Compound 20]	≤ 0.0156	0.25 (≈ 0.448 µM)	0.25 (≈ 0.448 µM)	8 (≈ 14.3 µM)	4 (≈ 7.16 µM)	0.5 (≈ 0.895 µM)	≤ 0.0156	0.0625 (≈ 0.112 µM)	≤ 0.0156	≤ 0.0156	0.25 (≈ 0.448 µM)	1 (≈ 1.79 µM)	8 (≈ 14.3 µM)	1 (≈ 1.79 µM)	1 (≈ 1.79 µM)					
COCCNCC(=O)Nc1cc(F)c2c(c1O)C(=O)C1=C(O)[C@]3(O)C(=O)C(C(N)=O)=C(O)[C@@H](N(C)C)[C@@H]3C[C@@H]1C2 [Compound 21]	0.25 (≈ 0.444 µM)	0.25 (≈ 0.444 µM)	0.5 (≈ 0.889 µM)	16 (≈ 28.4 µM)	8 (≈ 14.2 µM)	4 (≈ 7.11 µM)	0.125 (≈ 0.222 µM)	1 (≈ 1.78 µM)	≤ 0.0156	0.0625 (≈ 0.111 µM)	1 (≈ 1.78 µM)	2 (≈ 3.56 µM)	16 (≈ 28.4 µM)	4 (≈ 7.11 µM)	2 (≈ 3.56 µM)					
CN(C)c1ccc(O)c2c1C[C@H]1C[C@H]3[C@H](N(C)C)C(O)=C(C(N)=O)C(=O)[C@@]3(O)C(O)=C1C2=O [Minocycline]																0.06 (≈ 0.131 µM)	0.06 (≈ 0.131 µM)	16 (≈ 35 µM)	2 (≈ 4.37 µM)	
CN(C)[C@@H]1C(O)=C(C(N)=O)C(=O)[C@@]2(O)C(O)=C3C(=O)c4c(O)cccc4C[C@H]3C[C@@H]12 [Sancycline]																0.5 (≈ 1.21 µM)	0.25 (≈ 0.603 µM)	> 32	8 (≈ 19.3 µM)	32 (≈ 77.2 µM)
CN(C)c1cc(NC(=O)CNC(C)(C)C)c(O)c2c1C[C@H]1C[C@H]3[C@H](N(C)C)C(O)=C(C(N)=O)C(=O)[C@@]3(O)C(O)=C1C2=O [Tigecycline]																0.06 (≈ 0.102 µM)	0.25 (≈ 0.427 µM)	8 (≈ 13.7 µM)	0.25 (≈ 0.427 µM)	0.5 (≈ 0.854 µM)
